Here are results for 1 compound from article PMC7948422, “Repurposing p97 inhibitors for chemical modulation of the bacterial ClpB–DnaK bichaperone system” (The Journal of Biological Chemistry, 2020).

In general, IC50 refers to the midpoint of a concentration-inhibition curve.

Molecules are shown by their SMILES. “Also recorded” adds a separate entry of the source.

Series [1] has as its target T1, ClpB–DnaK bichaperone system (DnaK–DnaJ–GrpE + ClpB) (Escherichia coli, UniProt P0A6Y8+P63284).
T1 construct: full-length E. coli DnaK (residues 1–638); made in house; host or cells: E. coli BL21(DE3) for DnaK
As to the kind of experiment: Aggregate reactivation assay with KJE + ClpB. The format is biochemical. As to the method:
G6PDH was chemically denatured by mixing 5 μl of the G6PDH stock solution (441 μM) with 5 μl of buffer A (10 M urea, 16% glycerol, 40-mM DTT) preheated at 47 °C. The samples of G6PDH in buffer A were incubated for 5 min at 47 °C. Subsequently, 5 μl of denatured G6PDH was mixed with 95 μl of buffer B (50-mM Tris-HCl, pH 7.4, 20-mM Mg(OAc)2, 30-mM KCl, 1-mM EDTA, 1-mM β-mercaptoethanol) preheated at 47 °C to initiate protein refolding, which, under these conditions, is inefficient and leads to misfolding and aggregation of G6PDH ([69]). G6PDH aggregate production was arrested after 1 min (for refolding by KJE) or 15 min (for refolding by KJE with ClpB) by transferring into ice for 2 min. To observe the aggregate reactivation, aggregated G6PDH was diluted 10-fold in buffer C (50-mM Tris-HCl, pH 7.4, 20-mM MgCl2, 1-mM EDTA, 0.5-mM TCEP) containing the chaperones KJE (5.5-μM DnaK, 1.1-μM DnaJ, 1.1-μM GrpE) or KJE-ClpB (5.5-μM DnaK, 1.1-μM DnaJ, 1.1-μM GrpE, 1.65-μM ClpB (hexamer)). G6PDH in buffer C without chaperones was used as a control for a spontaneous aggregate reactivation. The chaperone-G6PDH samples (18 μl) were supplemented with 1 μl of DBeQ in DMSO or pure DMSO as a control. The samples were incubated for 2 min at 30 °C. The aggregate reactivation was initiated by adding 1 μl of 100-mM ATP, followed by incubation for 60 min at 30 °C. […] The plate was inserted into Synergy H1 plate reader (BioTek, Winooski, VT) with the chamber temperature at 30 °C, and the sample absorbance at 340 nm was measured after 10 min. The amount of NADPH produced was calculated based on the NADPH molar extinction coefficient, Ɛ340 = 6220 [M^−1 ⋅ cm^−1].
Firefly luciferase (220 μM) was diluted 300-fold in PBS buffer with 1 mg/ml bovine serum albumin and then incubated for 12 min at 45 °C. […] Luminescence was measured using Synergy H1 plate reader (BioTek, Winooski, VT).

Details of series [2]: method as in PMID 21383145. Particulars: cited from earlier work.
Another series deals with firefly luciferase (Photinus pyralis, UniProt P08659). As to the kind of experiment: Native firefly luciferase activity. The format is biochemical. Particulars: 100 µM compound.
In another series the target is T2, DnaK NBD (Escherichia coli, UniProt P0A6Y8).
T2 construct: the NBD of E. coli DnaK (residues 1–388); His-tag (pET28a) (C); made in house; host or cells: E. coli BL21(DE3)
Description: DnaK NBD ATPase activity assay. The format is biochemical. Particulars: 100 µM DBeQ, 37 °C. As to the method: To determine the ATPase activity of DnaK, 18 μl of DnaK solution or DnaK NBD solution prepared in buffer C was mixed with 1 μl of the investigated compounds or DMSO as a control. Samples without DnaK were used as control blanks. The samples were preincubated for 10 min at 37 °C. The reaction was initiated by adding 1 μl of 100-mM ATP bringing the final concentration of DnaK to 1.1 μM or DnaK NBD to 3.4 μM. The samples were incubated at 37 °C for 70 min for DnaK or 75 min for NBD. The concentration of inorganic phosphate produced from ATP in the presence of DnaK was determined as described above for ClpB.

In the next series the target is T3, E. coli ClpB (Escherichia coli, UniProt P63284).
T3 construct: made in house
The format is biochemical. Here is the method: To determine the ATPase activity, ClpB was diluted to 28 μg/ml (49-nM hexamer) in buffer C (50-mM Tris-HCl, pH 7.4, 20-mM MgCl2, 1-mM EDTA, 0.5-mM tris(2-carboxyethyl)phosphine [TCEP]). In some experiments, the ClpB solution was supplemented with 17.4 μg/ml (10 μM) κ-casein. The ClpB aliquots (18 μl) were mixed with 1 μl of the investigated compounds at different concentrations in 100% DMSO or with DMSO as a control. A sample without ClpB was used as a baseline control. After a 10-min preincubation at 37 or 45 °C, the ATP hydrolysis reaction was initiated by adding 1 μl of 100-mM ATP. The samples were incubated for 60 min (basal ClpB activity in the absence of κ-casein) or 15 min (in the presence of κ-casein) at 37 °C or 30 min at 45 °C in the absence of casein. For the E678Q ClpB variant, the incubation time in the presence of κ-casein was 60 min. After incubation, 15 μl of each sample was mixed with 200 μl of the ammonium molybdate/malachite green reagent ([67]) dispensed into a 96-well plate, followed by an addition of 30 μl of 34% sodium citrate ([68]). The plate was agitated inside a Synergy H1 reader (BioTek, Winooski, VT) for 15 min at room temperature, and the samples’ absorbance was measured at 630 nm. The readouts for ClpB-containing samples were corrected for absorbance of samples without ClpB, to account for nonenzymatic production of inorganic phosphate. A standard curve obtained with different inorganic phosphate concentrations was used to determine the amount of phosphate produced from ATP in the presence of ClpB.

T1 sequence (P63284 whole entry, the tested form may be a part): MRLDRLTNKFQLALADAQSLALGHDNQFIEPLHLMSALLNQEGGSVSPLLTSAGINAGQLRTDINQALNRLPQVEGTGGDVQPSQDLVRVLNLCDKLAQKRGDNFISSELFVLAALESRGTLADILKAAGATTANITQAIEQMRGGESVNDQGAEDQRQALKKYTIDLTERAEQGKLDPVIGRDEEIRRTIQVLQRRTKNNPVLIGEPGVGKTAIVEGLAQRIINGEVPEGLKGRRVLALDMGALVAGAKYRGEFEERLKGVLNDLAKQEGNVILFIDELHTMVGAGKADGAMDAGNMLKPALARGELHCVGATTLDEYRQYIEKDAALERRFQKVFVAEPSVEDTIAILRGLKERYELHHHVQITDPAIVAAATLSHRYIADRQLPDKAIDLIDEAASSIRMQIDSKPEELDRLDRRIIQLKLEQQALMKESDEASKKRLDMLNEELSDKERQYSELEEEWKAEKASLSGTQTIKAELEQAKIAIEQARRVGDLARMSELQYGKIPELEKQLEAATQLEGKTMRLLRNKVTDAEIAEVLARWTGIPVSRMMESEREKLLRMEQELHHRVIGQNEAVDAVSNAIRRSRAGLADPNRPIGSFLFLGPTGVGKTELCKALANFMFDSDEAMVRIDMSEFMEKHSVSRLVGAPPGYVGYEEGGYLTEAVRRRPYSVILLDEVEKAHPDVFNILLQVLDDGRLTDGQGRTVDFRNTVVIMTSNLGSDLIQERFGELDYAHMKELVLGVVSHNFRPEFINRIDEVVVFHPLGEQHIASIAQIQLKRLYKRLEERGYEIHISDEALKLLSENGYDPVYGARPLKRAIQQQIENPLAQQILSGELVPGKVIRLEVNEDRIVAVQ
T1 sequence (P0A6Y8 whole entry, the tested form may be a part): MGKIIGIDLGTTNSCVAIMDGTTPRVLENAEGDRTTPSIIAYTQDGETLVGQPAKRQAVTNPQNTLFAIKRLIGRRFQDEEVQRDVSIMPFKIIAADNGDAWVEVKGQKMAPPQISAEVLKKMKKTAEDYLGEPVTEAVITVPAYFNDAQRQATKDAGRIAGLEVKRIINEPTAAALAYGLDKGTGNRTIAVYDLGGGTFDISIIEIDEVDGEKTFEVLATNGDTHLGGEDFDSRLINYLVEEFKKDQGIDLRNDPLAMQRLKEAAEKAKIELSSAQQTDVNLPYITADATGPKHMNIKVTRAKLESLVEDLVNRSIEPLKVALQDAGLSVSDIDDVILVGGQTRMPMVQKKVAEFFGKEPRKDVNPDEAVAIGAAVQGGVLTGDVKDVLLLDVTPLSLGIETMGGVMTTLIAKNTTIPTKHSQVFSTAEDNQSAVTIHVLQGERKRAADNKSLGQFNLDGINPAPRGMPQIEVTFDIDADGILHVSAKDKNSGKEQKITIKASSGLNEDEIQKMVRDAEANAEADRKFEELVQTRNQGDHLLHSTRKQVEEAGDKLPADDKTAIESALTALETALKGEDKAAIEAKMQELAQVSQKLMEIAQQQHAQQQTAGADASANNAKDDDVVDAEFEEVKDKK
T3 sequence (P63284 whole entry): as the sequence (P63284 whole entry, the tested form may be a part) above
Chain of firefly luciferase (P08659 whole entry): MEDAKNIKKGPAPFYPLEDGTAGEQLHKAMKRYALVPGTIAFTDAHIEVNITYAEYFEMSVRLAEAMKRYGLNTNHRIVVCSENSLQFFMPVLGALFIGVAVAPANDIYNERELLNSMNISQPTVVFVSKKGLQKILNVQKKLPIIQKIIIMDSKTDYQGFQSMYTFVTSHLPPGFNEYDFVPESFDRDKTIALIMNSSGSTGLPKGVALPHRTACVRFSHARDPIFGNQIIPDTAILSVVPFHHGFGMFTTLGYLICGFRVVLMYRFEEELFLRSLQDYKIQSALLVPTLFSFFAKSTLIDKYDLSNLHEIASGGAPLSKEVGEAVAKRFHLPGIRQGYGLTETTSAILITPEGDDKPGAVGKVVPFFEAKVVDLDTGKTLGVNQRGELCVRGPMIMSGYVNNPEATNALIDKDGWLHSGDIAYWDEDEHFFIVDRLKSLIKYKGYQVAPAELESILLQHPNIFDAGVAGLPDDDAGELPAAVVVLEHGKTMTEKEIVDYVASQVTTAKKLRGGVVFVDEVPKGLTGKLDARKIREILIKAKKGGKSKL
T2 sequence (P0A6Y8 1-388): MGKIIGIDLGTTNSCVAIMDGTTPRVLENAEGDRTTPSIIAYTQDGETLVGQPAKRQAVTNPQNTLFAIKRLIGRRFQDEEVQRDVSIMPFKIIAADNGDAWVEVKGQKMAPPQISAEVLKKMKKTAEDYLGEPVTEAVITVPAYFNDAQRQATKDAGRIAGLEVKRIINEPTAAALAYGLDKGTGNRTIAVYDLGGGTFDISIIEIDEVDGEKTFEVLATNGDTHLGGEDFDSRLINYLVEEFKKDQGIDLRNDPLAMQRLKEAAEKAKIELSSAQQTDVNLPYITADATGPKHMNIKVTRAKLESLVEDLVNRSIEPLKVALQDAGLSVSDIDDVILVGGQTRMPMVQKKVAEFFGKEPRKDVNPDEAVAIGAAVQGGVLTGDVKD

For `c1ccc(CNc2nc(NCc3ccccc3)c3ccccc3n2)cc1` [DBeQ, N^2,N^4-dibenzylquinazoline-2,4-diamine], the IC50 in series [1] was around 5 µM. Besides, the “inhibition of ClpB-dependent reactivation of aggregated luciferase” value in series [1] (KJE + ClpB, 20 min, 25 °C) was “inhibited”. For the same compound, in series [1] (KJE + ClpB, 60 min, 30 °C, compared with KJE alone), the “inhibition of ClpB-dependent reactivation of aggregated G6PDH” value is reported as “inhibited by DBeQ with a several-fold lower IC50 than ClpB-independent reactivation by KJE alone”. The “solubility in aqueous buffers” value in series [2] is reported as “limited”. For the same compound, on firefly luciferase, the “effect on native luciferase activity” value was “not affected”. Also, at DnaK NBD, the “effect on ATPase activity of isolated DnaK NBD” value is reported as “did not inhibit”. The “inhibition of the basal ClpB ATPase” value on E. coli ClpB (100 μM compound, no casein, 37 °C) is given as “None of the above compounds, except C3, showed a significant inhibition”. For the same compound, the “inhibition of the ClpB ATPase in the presence of casein” value at E. coli ClpB (100 μM compound, with κ-casein, 37 °C) is “strongly inhibited”. The “effect on basal ClpB ATPase under heat-shock conditions” value on E. coli ClpB (45 °C, no casein) is “unaffected; also recorded: does not inhibit”.
